# Key:
# [1] = test system: Wistar male rat; assay: Competition experiment of MBR ligand (psychological stressor, number of dejection); type: in vivo
# Procedure: Using a Wistar male rat, psychological stressor similar to that in Biological Example 2 described above was loaded. Each treatment group was set as follows: a medium was intravenously administered (treatment group 1), the compound of the present invention (the compound of Example 38) was intravenously administered at a dose of 0.1 mg/kg (treatment group 2), an MBR selective agonist (CB34) was intravenously administered at a dose of 1 mg/kg (treatment group 3), or after the compound of the present invention (the compound of Example 38) was intravenously administered at a dose of 0.1 mg/kg, an MBR selective agonist was intravenously administered at a dose of 0.1 mg/kg (treatment group 4). In each group, stressor loading was initiated 10 minutes after administration, and the number of dejection was counted one hour later (10 animals in each group).
# [2] = target: T1, MBR (Rattus norvegicus, UniProt P16257); assay: Receptor binding experiment ([3H]PK11195 competition); settings: [3H]PK11195, rat membrana cerebri specimen; Cheng and Prusoff
# T1 construct: A Wistar male rat was decapitated and the whole brain was extirpated, and then the cerebellum was removed; from tissue; host or cells: Wistar male rat brain (cerebellum removed), crude membrane preparation
# Procedure: Affinity of the compound of the present invention for MBR was measured using a rat membrana cerebri specimen. The measuring method of the present invention has improved measurement accuracy and measurement sensitivity so as to evaluate the compound of the present invention as follows. A Wistar male rat was decapitated and the whole brain was extirpated, and then the cerebellum was removed. For the rat membrana cerebri specimen used in the binding experiment, 50 mmol/L of an ice-cold Iris-hydrochloric acid buffer (pH 7.4) was added and it was homogenized and centrifuged. After the resulting deposit was washed, it was resuspended to be prepared to about 1 mg/ml. The binding experiment was conducted using [^3H]PK11195 as an MBR selective ligand.
# In the case of calculating the all binding amount in a saturation experiment, the membrane specimen, [^3H]PK11195 at several concentrations, dimethyl sulfoxide (DMSO) in a final concentration of 0.5 vol %, and 50 mmol/L of a tris-hydrochloric acid buffer (pH 7.4) were mixed (all amount 200 μl), followed by incubation at room temperature for one hour. In the case of calculating the nonspecific binding amount, […] in a final concentration of 20 ptrnol/L was added instead of DMSO, followed by incubation for one hour. […] After the filter was dried, radioactivity was measured by a liquid scintillation counter. […]
# [3] = test system: Wistar male rat; assay: Study on antistress effect (1): psychological stressor, number of dejection; type: in vivo; settings: 30 min before stressor, counted one hour later
# Procedure: Psychological stressor was loaded using a Wistar male rat (Brain Res. 1994; 641: pp. 21-28). Water was accumulated by the depth of about 10 cm in a container having a platform in the center. Thirty-minutes after a medium or the compound of the present invention (the compound of Example 38) was intravenously administered at a dose of 0.01 mg/kg or orally administered at a dose of 1 mg/kg, stressor loading was initiated, and one hour later, the number of dejection was counted (10 animals in each group). The rat administered the compound of the present invention and the rat to which the stress or was not loaded had little dejection after one hour.
# [4] = test system: male Sprague-Dawley (SD) rat; assay: Study on antistress effect (2): physical (restraint) stressor, number of dejection; type: in vivo; settings: oral 1 mg/kg, 30 min before restraint; 60 minutes after initiation of stressor loading
# Procedure: Physical stressor was loaded using a male Sprague-Dawley (SD) rat (CHARLES RIVER LABORATORIES JAPAN, INC., 7 week old at being used) (Gastroenterology 1988; 94: pp. 611-622; Jpn. J. Phrmacol. 1998; 77: pp. 211-217). Thirty minutes after a medium (0.5% Tween 80 physiological saline) or the compound of the present invention (the compound of Example 38) was orally administered at a dose of 1 mg/kg, stressor loading was initiated by restraining both anterior branches of the rat with a binding band (Marvel Ltd.). Evaluation was performed by measuring the number of dejection 30 and 60 minutes after the initiation of stressor loading (15 animals in each group).
# [5] = Oral absorbability of rat; type: in vivo; settings: plasma; fasted SD male rat; oral 1 mg/kg vs intravenous 0.1 mg/kg; from AUC; read-out: Bioavailability (B.A.)
# Procedure: Using a fasted SD male rat (CHARLES RIVER LABORATORIES JAPAN, INC.), under the condition that the compound of the present invention (the compound of Example 38) was solubilized, the plasma concentration after administration in the tail vein at a dose of 0.1 mg/kg and the plasma concentration after gastric gavage administration at a dose of 1 mg/kg were measured. The blood was collected from a rat jugular vein under an unanesthetized condition 5, 15, and 30 minutes, and 1, 2, 3, 4, 6, and 8 hours after intravenous administration, and 15 and 30 minutes, and 1, 2, 3, 4, 6, and 8 hours after oral administration. Then the blood was centrifuged at 3000 rpm for 10 minutes and the supernatant was collected as plasma. The concentration of the compound in plasma was measured with LC/MS/MS (1100 HPLC System (Agilent Co. Ltd.), API 4000 (MDS SCIEX Ltd.)). From the obtained plasma concentration, an area under the curve (AUC, ngh/ml) and a maximum plasma concentration (Cmax, ng/mL) were calculated. In addition, Bioavailability (B.A.) of the compound of the present invention was calculated from AUC in oral administration and AUC in intravenous administration.
# [6] = test system: Wistar male rat; assay: Inhibitory action on abdominal pain in RCS loading model; type: in vivo; settings: oral 1 mg/kg twice a day, RCS 4 days, balloon 0-1.2 mL, versus medium treatment group (FIG. 1)
# Source text: A Wistar male rat (6 week old at being received) was anesthetized with pentobarbital sodium (Kyoritsu Seiyaku Corporation), its abdomen was incised and the abdominal muscle was exposed, and then Force Transducer (F-12IS-SL (STAR MEDICAL Ltd.)) was fitted. Penicillin was intramuscular administered after the operation, and a recuperative period of 5 days was set.
# During from AM 9:00 to PM 5:00 on a 1st day of the initiation of stress loading, the feeding environment temperature was alternately changed to 24° C. and 2° C. in an hour interval, and during from PM 5:00 to AM 9:00 in the next morning, the rat was fed under the environment of 2° C. […]
# After RCS was loaded for 4 days, abdominal pain evaluation was performed on a 5th day (10 to 12 animals in each group). […] Contraction of abdominal muscle for extension stimulation in each balloon liquid amount was recorded using the Chart software (Chart v5.0.2. (ADInstruments Inc.)) by passing the signal from the pressure transducer amplified by the amplifier (Windo Gragf (GOULD Inc.)) through the data collection system (PowerLab (ADInstruments Inc.)). During 5 minutes in which balloon extension stimulation was loaded, the number of signals from the pressure transducer in 3 minutes was counted, and the obtained number was regarded as the number of abdominal muscle contraction and set as the index of abdominal pain.
Ki [2] [nM],bioavailability [5] [%],SMILES,"the number of dejection: mean number ([1]; treatment group 3: intravenous 1 mg/kg, stressor 10 min after administration, counted one hour later)",the number of dejection: mean number ([3]; intravenous administration 0.01 mg/kg),the number of dejection: mean number ([3]; oral administration 1 mg/kg),the number of dejection: mean number [4],"the number of dejection: mean number ([1]; treatment group 2: intravenous 0.1 mg/kg, stressor 10 min after administration, counted one hour later)","the number of dejection: mean number ([1]; treatment group 4: Example 38 intravenous 0.1 mg/kg, then MBR selective agonist (CB34) intravenous 0.1 mg/kg)",number of abdominal muscle contraction (index of abdominal pain) [6]
,,"CCCN(CCC)C(=O)c1c(-c2ccc(Cl)cc2)nc2cc(Cl)cc(Cl)n12 [CB34, 5,7-dichloro-2-(4-chlorophenyl)-3-dipropylaminocarbonylimidazo[1,2-a]pyridine, reference compound]",9.5,,,,,,
0.08,86.9,"COc1cc(Cl)ccc1[C@H]1c2[nH]c3cccc(F)c3c2C2(CC2)CN1C(C)=O [Example 38, (1S)-2-acetyl-1-(4-chloro-2-methoxyphenyl)-5-fluoro-1,2,3,9-tetrahydrospiro[β-carboline-4,1′-cyclopropane]]",,8.2,6.2,7.5,7.3,10.1,significantly inhibited

# From patent publication US8952158B2, “Tricyclic compound and use thereof” (Ono Pharmaceutical Co., Ltd., priority 2004, dated 2015)
